Assay results: ChEMBL document CHEMBL5247629, “C-6 fluorinated casuarines as highly potent and selective amyloglucosidase inhibitors: Synthesis and structure-activity relationship study” (Eur J Med Chem, 2022)

Tests used:
[1] = target: Alpha-glucosidase (Saccharomyces cerevisiae S288c, UniProt P53341+P38158+P07265); assay: Inhibition of yeast alpha-glucosidase using p-nitrophenyl glycoside as substrate by spectrometric method; type: protein assay
[2] = tested on: Oryza sativa; assay: Inhibition of rice alpha-glucosidase using p-nitrophenyl glycoside as substrate at 1000 uM by spectrometric method relative to control
[3] = Inhibition of rat intestinal maltase using maltose as substrate at pH 6.8 by colorimetric method; type: tissue-based, Intestine
[4] = tested on: Prunus dulcis; assay: Inhibition of almond beta-glucosidase using p-nitrophenyl glycoside as substrate at 1000 uM by spectrometric method relative to control
[5] = species on record: Bos taurus; assay: Inhibition of bovine liver beta-glucosidase using p-nitrophenyl glycoside as substrate at 1000 uM by spectrometric method relative to control; type: tissue-based
[6] = target: T1, Alpha-mannosidase (Canavalia ensiformis) (UniProt C0HJB3); assay: Inhibition of jack bean alpha-mannosidase using p-nitrophenyl glycoside as substrate at 1000 uM by spectrometric method relative to control
T1 sequence (whole entry): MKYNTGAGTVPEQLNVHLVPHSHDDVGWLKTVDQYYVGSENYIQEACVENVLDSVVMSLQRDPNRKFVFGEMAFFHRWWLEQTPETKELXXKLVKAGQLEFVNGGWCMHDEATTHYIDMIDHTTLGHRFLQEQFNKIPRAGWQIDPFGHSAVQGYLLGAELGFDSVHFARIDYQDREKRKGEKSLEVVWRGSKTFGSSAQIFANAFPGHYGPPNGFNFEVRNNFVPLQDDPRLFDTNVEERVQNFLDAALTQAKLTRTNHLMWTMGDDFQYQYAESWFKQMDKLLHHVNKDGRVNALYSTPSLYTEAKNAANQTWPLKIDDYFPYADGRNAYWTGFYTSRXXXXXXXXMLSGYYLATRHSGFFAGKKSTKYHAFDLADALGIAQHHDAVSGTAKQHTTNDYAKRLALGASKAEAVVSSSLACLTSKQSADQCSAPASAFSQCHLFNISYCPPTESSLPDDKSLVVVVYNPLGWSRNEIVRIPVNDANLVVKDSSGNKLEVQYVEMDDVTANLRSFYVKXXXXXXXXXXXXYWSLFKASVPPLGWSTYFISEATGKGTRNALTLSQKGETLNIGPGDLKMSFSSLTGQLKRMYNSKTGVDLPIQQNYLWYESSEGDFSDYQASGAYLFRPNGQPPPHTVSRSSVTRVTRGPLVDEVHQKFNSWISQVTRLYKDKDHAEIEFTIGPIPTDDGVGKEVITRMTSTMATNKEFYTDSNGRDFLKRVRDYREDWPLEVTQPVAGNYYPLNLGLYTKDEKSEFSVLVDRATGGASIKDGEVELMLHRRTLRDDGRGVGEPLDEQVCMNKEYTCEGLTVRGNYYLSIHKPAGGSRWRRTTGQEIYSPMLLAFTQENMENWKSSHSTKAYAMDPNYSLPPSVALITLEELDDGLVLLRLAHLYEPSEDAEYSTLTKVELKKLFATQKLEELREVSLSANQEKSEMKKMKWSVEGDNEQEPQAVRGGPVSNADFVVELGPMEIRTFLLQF

[7] = target: Alpha-galactosidase (Coffea arabica) (UniProt Q42656); assay: Inhibition of coffee bean alpha-galactosidase using p-nitrophenyl glycoside as substrate at 1000 uM by spectrometric method relative to control
Chain of Alpha-galactosidase (Coffea arabica) (Q42656 16-378 limits assumed): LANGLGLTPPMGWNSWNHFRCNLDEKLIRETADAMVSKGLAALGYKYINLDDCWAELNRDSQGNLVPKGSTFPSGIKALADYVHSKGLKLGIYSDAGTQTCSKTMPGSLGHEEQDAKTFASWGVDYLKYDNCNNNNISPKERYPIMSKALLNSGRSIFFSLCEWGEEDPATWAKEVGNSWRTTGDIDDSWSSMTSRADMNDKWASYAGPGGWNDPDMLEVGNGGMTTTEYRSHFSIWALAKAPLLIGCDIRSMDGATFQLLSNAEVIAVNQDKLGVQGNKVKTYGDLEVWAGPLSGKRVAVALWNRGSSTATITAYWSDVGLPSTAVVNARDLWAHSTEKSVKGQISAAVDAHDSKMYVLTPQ

[8] = species on record: Bos taurus; assay: Inhibition of bovine liver beta-galactosidase using p-nitrophenyl glycoside as substrate at 1000 uM by spectrometric method relative to control; type: tissue-based
[9] = tested on: Helix pomatia; assay: Inhibition of snail beta-mannosidase using p-nitrophenyl glycoside as substrate at 1000 uM by spectrometric method relative to control
[10] = target: T2, Tissue alpha-L-fucosidase (Bos taurus) (UniProt Q2KIM0); assay: Inhibition of bovine kidney alpha-L-fucosidase using p-nitrophenyl glycoside as substrate at 1000 uM by spectrometric method relative to control; type: tissue-based
T2 sequence (whole entry): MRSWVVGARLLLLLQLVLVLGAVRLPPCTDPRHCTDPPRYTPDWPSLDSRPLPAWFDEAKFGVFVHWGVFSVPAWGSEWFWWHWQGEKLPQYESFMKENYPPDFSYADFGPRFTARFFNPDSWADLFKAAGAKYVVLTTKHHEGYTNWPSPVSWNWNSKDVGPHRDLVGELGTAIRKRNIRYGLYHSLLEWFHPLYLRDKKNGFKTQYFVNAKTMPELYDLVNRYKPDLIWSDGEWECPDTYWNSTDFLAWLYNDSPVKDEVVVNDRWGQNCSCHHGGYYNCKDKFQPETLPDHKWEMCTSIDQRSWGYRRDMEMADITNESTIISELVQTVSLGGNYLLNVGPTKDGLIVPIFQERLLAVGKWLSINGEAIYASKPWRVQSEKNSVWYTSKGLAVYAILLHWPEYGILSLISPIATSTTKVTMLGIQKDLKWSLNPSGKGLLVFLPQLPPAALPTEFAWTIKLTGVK

[11] = Inhibition of porcine kidney alpha/alpha-trehalase using p-nitrophenyl glycoside as substrate by spectrometric method; design: species or system Sus scrofa
[12] = Inhibition of Aspergillus niger amyloglucosidase using p-nitrophenyl glycoside as substrate by spectrometric method
[13] = tested on: Penicillium decumbens; assay: Inhibition of Penicillium decumbens alpha-L-rhamnosidase using p-nitrophenyl glycoside as substrate at 1000 uM by spectrometric method relative to control
[14] = tested on: Escherichia coli; assay: Inhibition of Escherichia coli beta-glucuronidase using p-nitrophenyl glycoside as substrate at 1000 uM by spectrometric method relative to control
[15] = species on record: Bos taurus; assay: Inhibition of bovine liver beta-glucuronidase using p-nitrophenyl glycoside as substrate at 1000 uM by spectrometric method relative to control; type: tissue-based
[16] = target: Alpha-glucosidase (Saccharomyces cerevisiae S288c) (UniProt P53341+P38158+P07265); assay: Inhibition of yeast alpha-glucosidase using p-nitrophenyl glycoside as substrate at 1000 uM by spectrometric method relative to control; type: protein assay
[17] = species on record: Rattus norvegicus; assay: Inhibition of rat intestinal maltase using maltose as substrate at 1000 uM at pH 6.8 by colorimetric method relative to control; type: tissue-based; details: Intestine
[18] = Inhibition of almond beta-glucosidase using p-nitrophenyl glycoside as substrate by spectrometric method; design: species or system Prunus dulcis
[19] = species on record: Sus scrofa; assay: Inhibition of porcine kidney alpha/alpha-trehalase using p-nitrophenyl glycoside as substrate at 1000 uM by spectrometric method relative to control; type: tissue-based
[20] = Inhibition of Penicillium decumbens alpha-L-rhamnosidase using p-nitrophenyl glycoside as substrate by spectrometric method
[21] = Inhibition of rice alpha-glucosidase using p-nitrophenyl glycoside as substrate by spectrometric method; design: species or system Oryza sativa
[22] = Inhibition of bovine liver beta-glucosidase using p-nitrophenyl glycoside as substrate by spectrometric method; type: tissue-based, Bos taurus
[23] = Inhibition of bovine liver beta-galactosidase using p-nitrophenyl glycoside as substrate by spectrometric method; design: species or system Bos taurus

SMILES	inhibition [2]	IC50 [3]	inhibition [4]	inhibition [5]	inhibition [6]	inhibition [7]	inhibition [8]	inhibition [9]	inhibition [10]	IC50 [11]	IC50 [12]	pIC50 [12]	inhibition [13]	inhibition [14]	inhibition [15]	inhibition [16]	IC50 [18]	inhibition [19]	IC50 [21]	other results
OC[C@@H]1[C@@H](O)[C@H](O)[C@H]2C[C@H](O)CN12	12.4%	248 µM	10.5%	13.9%	2.2%	4.5%	25.4%	2.4%	0%	22 µM	42 µM	4.377	11.2%	4.3%	14%	–	–	–	–	IC50 [1]: 466 µM
OC[C@@H]1[C@@H](O)[C@H](O)[C@H]2[C@H](O)[C@H](F)CN21	12.7%	–	–	43.8%	5.8%	1.7%	47.6%	5.9%	7.6%	–	0.14 µM	6.854	–	4.3%	11.6%	12%	395 µM	15.6%	–	inhibition [17]: 33%; IC50 [20]: 488 µM
OC[C@@H]1[C@@H](O)[C@H](O)[C@H]2C[C@@H](O)CN12	–	72 µM	13.6%	21.9%	6.3%	4.4%	5.9%	3.6%	14.8%	124 µM	40 µM	4.398	6.3%	20.5%	10.8%	44.1%	–	–	234 µM	–
OC[C@@H]1[C@@H](O)[C@H](O)[C@H]2[C@H](O)C(F)(F)CN21	–	167 µM	–	–	6.3%	1.2%	–	0%	6.8%	–	2.1 µM	5.678	5.6%	2.6%	15.9%	24%	266 µM	5.9%	48 µM	IC50 [22]: 747 µM; IC50 [23]: 390 µM
